# According to article PMC4158172 (European Journal of Clinical Pharmacology, 2014):
# Read-outs that look alike come from different tables or passages of the source.
# How the values were obtained:
# [1] = Urinary metabolic profile of DTG (pooled urine); type: in vivo, human; settings: pooled urine 0-24 h, n=12, mean (standard deviation)
# Experimental: (§1) There was no washout between treatment periods. All doses were administered in the fasting state.
# (§2) Urine samples were collected at intervals of 0 to 12 hours and 12 to 24 hours after each treatment period. Individual urine pools were produced for each subject in a given treatment group by combining proportional volumes (% of total volume) from the 0- to 12-hours and 12- to 24-hours collections. Individual pooled human plasma samples were prepared for each subject and treatment group.
# (§3) Each pooled plasma sample was mixed with aqueous EDTA disodium salt solution (10 mg/mL) and subsequently extracted 3 times with methanol and acetonitrile. Pooled urine samples were lyophilised and the residue was reconstituted in water:methanol (90:10 v/v). Drug-related components in plasma extracts and urine samples were separated on a 100 × 4.6 mm 3.5-micron Symmetry C18 column (Waters Associates) at 40°C by a step-gradient elution method with a mobile phase composition of water:acetonitrile containing 0.1% ammonium acetate starting at 95:5 (v/v) and ending at 5:95 (v/v) over 50 minutes. The eluate was analysed by multistage mass spectrometry (MSn) using an LTQ Orbitrap™ Hybrid Mass Spectrometer with Xcalibur 2.07 software (Thermo Fisher Scientific, Bremen, Germany). Data-dependent scanning using an accurate mass list, consisting of all previously characterised metabolites, was used in addition to analysis of pre-dose samples to aid in the distinction of drug-related material from endogenous components.
# [2] = EFV plasma pharmacokinetics when co-administered with DTG, by CYP2B6 genotype; settings: for AUC / Cmax / concentration at 24 h / Tmax / half-life: human; for AUC: AUC(0–τ); for Cmax: C max; for concentration at 24 h: C τ; for Tmax: T max; for half-life: t½
# Experimental: This was a phase I, open-label, single-sequence, two-period, steady-state study. Subjects received DTG at a dose of 50 mg (two 25 mg tablets) every 24 hours (q24h) for 5 days (period 1), and then the combination of morning DTG 50 mg and evening EFV 600 mg q24h was given for 14 days (period 2). There was no washout between treatment periods. All doses were administered in the fasting state. Serial PK plasma samples were collected after each period for DTG, and samples after period 2 were also collected for EFV. The metabolic profile of DTG was evaluated in plasma and urine using pooled samples for each subject to assist in establishing the mechanism of any potential drug interaction (see Supplementary Material).
# Dolutegravir and EFV were measured in plasma samples using validated methods, which consisted of extraction from plasma by protein precipitation with acetonitrile containing [^15N^2H7]dolutegravir or [^2H4]-efavirenz as the internal standards, respectively. The plasma extracts were injected onto a 2.1 × 50 mm 3.5-micron XBridge™ C18 column (Waters Associates, Milford, MA, USA). Dolutegravir was eluted with a mobile phase consisting of 40 % acetonitrile in aqueous 0.1 % formic acid, and EFV was eluted with a mobile phase consisting of acetonitrile/0.1 % formic acid (65 % v/v) in a 5-mM ammonium acetate buffer containing 0.1 % acetic acid (35 % v/v). The eluates were detected by using a Sciex API 4000™ (AB Sciex, Framingham, MA, USA) equipped with a TurboIonSpray® ionisation source with multiple reaction monitoring (DTG positive ion mode m/z 420 > 277; internal standard m/z 428 > 277; EFV negative ion mode m/z 314 > 243; internal standard m/z 318 > 247). Data acquisition and processing were performed with Analyst 1.4.2 software (AB Sciex), and linear regression analysis calculations were performed using the Study Management System, SMS™ 2000 v.2.2 (GlaxoSmithKline, Research Triangle Park, NC, USA). The calibration range for DTG was 0.020 to 20 μg/mL and for EFV was 0.10 to 20 μg/mL. Quality control samples prepared separately at three concentrations were stored with study samples and analysed with each batch of samples against separately prepared calibration standards.
# A non-compartmental PK analysis of the concentration-time data was performed with WinNonlin (version 5.2, Pharsight Corporation, Mountain View, CA, USA). Plasma PK parameters for both DTG and EFV were calculated using actual recorded times for each treatment. Parameters that were determined included AUC from time zero to the end of the dosage interval (AUC(0–τ)), maximum observed plasma concentration (C max), the time of maximum observed plasma concentration (T max) and plasma concentration at the end of the dosing interval (C τ).
# A blood sample was taken from 9 of 12 subjects in the EFV study who gave consent for pharmacogenetic analysis, and genomic DNA was extracted. Twenty-three polymorphisms from five genes/gene regions previously implicated in EFV metabolism were genotyped (Table 1). Only polymorphisms possibly conferring reduced enzyme activity were investigated. Due to the small number of samples available, no statistical modelling was planned or performed. However, the probabilities for each possible experimental outcome, based on the distribution of polymorphism carrier status between cases and controls and an assumption of no genetic association, were calculated a priori.
# [3] = EFV product label, cited from earlier work
# [4] = Safety evaluations, interaction study with TPV/r; type: in vivo, human
# Experimental: In both studies, safety evaluations [adverse event (AE) reporting, clinical chemistry laboratory tests, urinalysis, vital signs and electrocardiogram] were performed throughout the study. Given the known hepatotoxicity profile of TPV/r, more frequent monitoring of liver chemistries was performed in the TPV/r study, and conservative stopping criteria were employed such that any subject reaching a grade 2 increase in alanine aminotransferase (ALT) or aspartate aminotransferase (AST) was discontinued from the trial. Both trials were conducted as inpatient studies with subjects housed in the unit for the duration of the study. The studies were conducted in accordance with the principles of the Declaration of Helsinki. A written informed consent was obtained from all subjects, and both protocols were approved by the institutional review board of the study sites.
# CYP3A4/5 = settings: in vivo, cited from earlier work
# [5] = design: method as in PMID 18769354; settings: EVG 200 mg once daily with TPV/r 500/200 mg twice daily, healthy subjects; cited from earlier work
# [6] = Plasma metabolic profile of DTG (pooled plasma); type: in vivo, human; settings: pooled plasma, both treatment groups
# Experimental: as §1, §2
# as §3, with “Data-dependent scanning using an accurate mass list, consisting of all previously characterised metabolites, was used in addition to analysis of pre-dose samples to aid in the distinction of drug-related material from endogenous components.” left out
# [7] = with TPV/r; cited from earlier work
# [8] = in vivo; cited from earlier work
# [9] = in vivo, EFV with DTG, CYP2B6*1/*1 or *1/*6 subjects n=6, geometric mean (CV%)
# [10] = in vivo, EFV with DTG, CYP2B6*6/*6 subjects n=3, geometric mean (CV%)
# [11] = in vivo, EFV with DTG, all subjects n=12, geometric mean (CV%)
compound,measurement,setting,value
C[C@@H]1CCO[C@H]2Cn3cc(C(=O)NC(O)c4ccc(F)cc4F)c(=O)c(O)c3C(=O)N12 (stereo partly shown) [M3],% DTG,[1]; DTG 50 mg + EFV q24h,38.8 (48.6) %
same,% Total drug-related response,[1]; DTG 50 mg + EFV q24h,1.9 (2.4) %
same,% DTG,[1]; DTG 50 mg q24h,51.9 (57.3) %
same,% Total drug-related response,[1]; DTG 50 mg q24h,2.9 (2.6) %
"O=C1Nc2ccc(Cl)cc2[C@@](C#CC2CC2)(C(F)(F)F)O1 [EFV, efavirenz]",C τ,"[2]; EFV with DTG, CYP2B6*1/*1 or *1/*6 subjects n=6, geometric mean (CV%)",1.45 (40) μg/mL
same,AUC,[2]; [9],55700 ng·h/mL
same,AUC,[2]; [10],174000 ng·h/mL
same,AUC,[2]; [11],84200 ng·h/mL
same,Cmax,"[2]; in vivo, EFV 600 mg q24h with DTG 50 mg, all subjects n=12, geometric mean (CV%)",6020 ng/mL
same,Cmax,[2]; [9],4520 ng/mL
same,Cmax,[2]; [10],9500 ng/mL
same,concentration at 24 h,[2]; [10],5850 ng/mL
same,concentration at 24 h,[2]; [11],2410 ng/mL
same,Tmax,"[2]; in vivo, EFV with DTG, CYP2B6*1/*1 or *1/*6 subjects n=6, median (range)",2.5 h
same,Tmax,"[2]; in vivo, EFV with DTG, CYP2B6*6/*6 subjects n=3, median (range)",2 h
same,Tmax,"[2]; in vivo, EFV with DTG, all subjects n=12, median (range)",2.5 h
same,half-life,[2]; [9],15.6 h
same,half-life,[2]; [10],39.1 h
same,half-life,[2]; [11],22.2 h
same,EFV exposures in CYP2B6*6 homozygous subjects relative to CYP2B6*1/*1 or *1/*6 carriers,[2]; in vivo,two- to fourfold higher
same,mean C max,[3],4070 ng/mL
same,Cmax,[3]; read-out: mean C max,12.9 µM
tipranavir/ritonavir [TPV/r],subjects reporting nausea,[4]; healthy subjects n=18,22%
same,subjects reporting vomiting,[4]; healthy subjects n=18,11%
same,subjects with grade 2 increases in AST,"[4]; n=18, began during TPV/r alone (period 2)",Three
same,subjects with grade 2 increases in ALT leading to discontinuation,"[4]; n=18, began during TPV/r alone (period 2), considered related to TPV/r",Four
same,effect on CYP3A4/5,CYP3A4/5; after a single dose,moderately inhibits
same,effect on CYP3A4/5,CYP3A4/5; after repeated dosing,induces
"COc1cc2c(cc1Cc1cccc(Cl)c1F)c(=O)c(C(=O)O)cn2[C@H](CO)C(C)C [EVG, Elvitegravir]",changes in PK,[5],No significant changes
C[C@@H]1CCO[C@H]2Cn3cc(C(=O)NCc4ccc(F)cc4F)c(=O)c(O[C@@H]4O[C@H](C(=O)O)[C@@H](O)[C@H](O)[C@H]4O)c3C(=O)N12 [M2],amount in plasma relative to DTG (mean),[6],< 2 % of DTG
same,% DTG,[1]; DTG 50 mg + EFV q24h,"1,633 (607) %"
same,% Total drug-related response,[1]; DTG 50 mg + EFV q24h,79.8 (9.3) %
same,% DTG,[1]; DTG 50 mg q24h,"1,188 (275) %"
same,% Total drug-related response,[1]; DTG 50 mg q24h,72.8 (10.9) %
"Cc1nnc(C(=O)NC(C)(C)c2nc(C(=O)NCc3ccc(F)cc3)c(O)c(=O)n2C)o1 [RAL, raltegravir]",decrease of AUC(0–12),[7],24%
CC(C)CN(C[C@@H](O)[C@H](Cc1ccccc1)NC(=O)O[C@H]1CCOC1)S(=O)(=O)c1ccc(N)cc1 [amprenavir],decrease of Cmin,[8],56%
CC(C)(C)NC(=O)[C@@H]1C[C@@H]2CCCC[C@@H]2CN1C[C@@H](O)[C@H](Cc1ccccc1)NC(=O)[C@H](CC(N)=O)NC(=O)c1ccc2ccccc2n1 [saquinavir],decrease of Cmin,[8],80%
